# Assay results reported in ChEMBL document CHEMBL1149774, “Synthesis of N-(5,7-diamino-3-phenyl-quinoxalin-2-yl)-3,4,5-substituted anilines and N-[4[(5,7-diamino-3-phenylquinoxalin-2-yl)amino]benzoyl]-l-glutamic acid diethyl ester: evaluation of in vitro anti-cancer and anti-folate activities” (Eur J Med Chem, 2008).
# pKi: −log10 of the molar value. Activity calls are given as the source filed them. The rule behind the calls is not given here.
# Columns and labels:
# Thymidylate synthase [1] = molecular target: T1, Thymidylate synthase (Lactobacillus casei, UniProt P00469)
# T1 sequence (P00469 whole entry): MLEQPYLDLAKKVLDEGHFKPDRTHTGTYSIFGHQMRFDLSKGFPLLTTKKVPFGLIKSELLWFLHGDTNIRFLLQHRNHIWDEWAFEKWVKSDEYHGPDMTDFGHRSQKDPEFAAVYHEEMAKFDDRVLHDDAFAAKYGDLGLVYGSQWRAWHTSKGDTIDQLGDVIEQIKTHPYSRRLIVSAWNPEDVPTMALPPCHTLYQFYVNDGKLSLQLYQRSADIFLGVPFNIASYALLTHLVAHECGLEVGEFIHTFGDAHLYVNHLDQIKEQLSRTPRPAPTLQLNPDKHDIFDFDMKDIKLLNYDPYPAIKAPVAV
# Description: Inhibition of Lactobacillus casei thymidylate synthase
# [2] = molecular target: Thymidylate synthase (Escherichia coli) (UniProt C3SWJ7); experiment: Inhibition of Escherichia coli thymidylate synthase at 10 uM
# Chain of Thymidylate synthase (Escherichia coli) (C3SWJ7 1-264): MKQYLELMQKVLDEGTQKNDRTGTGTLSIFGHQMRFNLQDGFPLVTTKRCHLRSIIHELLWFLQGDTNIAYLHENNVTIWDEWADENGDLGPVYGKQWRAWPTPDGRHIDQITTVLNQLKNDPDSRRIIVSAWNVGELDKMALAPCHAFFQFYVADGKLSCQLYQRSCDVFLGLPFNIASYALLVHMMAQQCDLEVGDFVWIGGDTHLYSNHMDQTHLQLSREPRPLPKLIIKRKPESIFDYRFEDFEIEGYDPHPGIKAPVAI
# Thymidylate synthase [3] = molecular target: Thymidylate synthase (Escherichia coli, UniProt C3SWJ7)
# Chain of Thymidylate synthase (Escherichia coli, UniProt C3SWJ7) (C3SWJ7 whole entry): as the sequence (C3SWJ7 1-264) above
# CCRF-CEM = experiment: Growth inhibition of human CCRF-CEM cells after 48 hrs by SRB staining method; assay type: functional
Structure (SMILES),pKi (Thymidylate synthase [1]),Activity [2],pKi (Thymidylate synthase [3]),GI50 (CCRF-CEM) [µM]
COc1cc(Nc2nc3cc([N+](=O)[O-])cc([N+](=O)[O-])c3nc2-c2ccccc2)cc(OC)c1,5.22,inactive,–,–
CCOC(=O)CCC(NC(=O)c1ccc(Nc2nc3cc([N+](=O)[O-])cc([N+](=O)[O-])c3nc2-c2ccccc2)cc1)C(=O)OCC (stereo unspecified),4.44,–,5.52,–
COc1cc(Nc2nc3cc([N+](=O)[O-])cc([N+](=O)[O-])c3nc2-c2ccccc2)cc(OC)c1OC,4.96,inactive,–,–
COc1ccc(Nc2nc3cc([N+](=O)[O-])cc([N+](=O)[O-])c3nc2-c2ccccc2)cc1OC,4.62,–,6.00,–
CN(Cc1cnc2nc(N)nc(N)c2n1)c1ccc(C(=O)N[C@@H](CCC(=O)O)C(=O)O)cc1 [METHOTREXATE],–,–,–,0.0398
COc1ccc(Nc2nc3cc([N+](=O)[O-])cc([N+](=O)[O-])c3nc2-c2ccccc2)cc1,5.10,inactive,–,–
